Holding throughout (experiment): NanoBiT complementation of STING and HERC4 in HEK293T; also co-immunoprecipitation
Format in all cases: cell-based

The target of assay [1] is T1, STING^141-341-LgBiT : SmBiT-HERC4 (Homo sapiens, UniProt Q5GLZ8+Q86WV6, Q86WV6:K150R).
T1 construct: gene STING1; STING cytosolic domain with connector helix (141-341), C-terminal LgBiT; full-length HERC4, N-terminal SmBiT; transient in HEK293T
Conditions: compound-induced STING-HERC4 association; dose-response, 16 h; binding site and direct binary binding not determined.

Assay [2] deals with T2, STING^141-341-LgBiT : SmBiT-HERC4 (Homo sapiens, UniProt Q5GLZ8+Q86WV6).
T2 construct: gene STING1; STING cytosolic domain with connector helix (141-341), C-terminal LgBiT; full-length HERC4, N-terminal SmBiT; transient in HEK293T
Conditions: compound-induced STING-HERC4 association; dose-response, 16 h; binding site and direct binary binding not determined.

The target of assay [3] is T3, STING^155-341-LgBiT : SmBiT-HERC4 (Homo sapiens, UniProt Q5GLZ8+Q86WV6).
T3 construct: gene STING1; full-length HERC4, N-terminal SmBiT; transient in HEK293T
Conditions: compound-induced STING-HERC4 association; 16 h; binding site and direct binary binding not determined.

T2 sequence (Q86WV6 141-341): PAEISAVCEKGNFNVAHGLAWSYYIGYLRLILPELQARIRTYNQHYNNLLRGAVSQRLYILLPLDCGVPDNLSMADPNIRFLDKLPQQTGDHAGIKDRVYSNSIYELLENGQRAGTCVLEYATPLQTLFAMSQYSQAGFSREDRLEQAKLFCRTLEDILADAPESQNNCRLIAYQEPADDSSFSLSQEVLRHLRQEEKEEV
T2 sequence (Q5GLZ8 whole entry, the tested form may be a part): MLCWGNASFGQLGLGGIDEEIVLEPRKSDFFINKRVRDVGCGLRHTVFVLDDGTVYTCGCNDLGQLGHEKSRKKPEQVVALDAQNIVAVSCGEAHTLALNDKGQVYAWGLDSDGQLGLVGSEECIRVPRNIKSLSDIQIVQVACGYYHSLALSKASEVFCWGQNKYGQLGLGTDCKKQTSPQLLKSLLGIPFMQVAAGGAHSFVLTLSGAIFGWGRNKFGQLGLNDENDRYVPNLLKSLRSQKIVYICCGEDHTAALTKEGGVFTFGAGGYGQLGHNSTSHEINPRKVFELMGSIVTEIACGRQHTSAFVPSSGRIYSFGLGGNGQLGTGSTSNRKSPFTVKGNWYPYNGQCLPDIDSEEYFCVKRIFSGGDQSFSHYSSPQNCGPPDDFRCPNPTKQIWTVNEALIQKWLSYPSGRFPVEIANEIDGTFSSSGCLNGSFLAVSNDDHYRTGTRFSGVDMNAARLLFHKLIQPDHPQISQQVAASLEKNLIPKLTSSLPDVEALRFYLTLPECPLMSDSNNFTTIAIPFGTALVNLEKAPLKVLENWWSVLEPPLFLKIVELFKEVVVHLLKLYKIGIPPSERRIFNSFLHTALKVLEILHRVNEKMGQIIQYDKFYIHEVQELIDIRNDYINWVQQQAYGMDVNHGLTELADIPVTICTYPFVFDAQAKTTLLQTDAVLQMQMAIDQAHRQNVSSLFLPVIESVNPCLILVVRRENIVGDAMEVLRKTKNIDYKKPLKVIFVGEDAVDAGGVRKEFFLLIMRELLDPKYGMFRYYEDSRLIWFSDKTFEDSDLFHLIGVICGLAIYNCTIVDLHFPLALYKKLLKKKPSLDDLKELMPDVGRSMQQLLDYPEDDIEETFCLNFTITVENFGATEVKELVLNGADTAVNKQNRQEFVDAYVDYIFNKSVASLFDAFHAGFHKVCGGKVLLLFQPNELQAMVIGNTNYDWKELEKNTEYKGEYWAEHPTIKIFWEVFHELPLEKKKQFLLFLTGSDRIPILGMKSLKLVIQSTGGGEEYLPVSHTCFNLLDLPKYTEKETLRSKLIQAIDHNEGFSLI
T3 sequence (Q86WV6 155-341): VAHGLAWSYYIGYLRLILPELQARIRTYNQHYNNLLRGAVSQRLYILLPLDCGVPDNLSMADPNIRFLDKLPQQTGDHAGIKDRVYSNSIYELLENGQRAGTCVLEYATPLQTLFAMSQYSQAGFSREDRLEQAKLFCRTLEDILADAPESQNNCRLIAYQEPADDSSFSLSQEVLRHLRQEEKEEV
T3 sequence (Q5GLZ8 whole entry): as the sequence (Q5GLZ8 whole entry, the tested form may be a part) above
T1 sequence (Q86WV6 141-341 K150R): as the sequence (Q86WV6 141-341) above, with K10R counted along it
T1 sequence (Q5GLZ8 whole entry, the tested form may be a part): as the sequence (Q5GLZ8 whole entry, the tested form may be a part) above

For the molecule `O=S(=O)(Nc1ccc(-c2cccnc2)c2cccnc12)c1ccc(C(F)(F)F)cc1` [AK59, AK59-51TB], the “NanoBiT complementation of STING and HERC4 in HEK293T; also co-immunoprecipitati” value in assay [1] was “all constructs showed a luminescence signal indicating a direct interaction with HERC4 upon AK59”; in assay [2], “only AK59, but not the inactive analog QK50, is capable of inducing an interaction”; in assay [3], “all constructs showed a luminescence signal indicating a direct interaction with HERC4 upon AK59”.

Values taken from paper PMC11137104, “Small molecule induced STING degradation facilitated by the HECT ligase HERC4” (Nature Communications, 2024).
